Laboratory results as given in patent US20230085307A1, “PYRIDAZINONE COMPOUND AND HERBICIDE” (NISSAN CHEMICAL CORPORATION, priority 2019, published 2023).

How the values were obtained:
late watergrass = test: Test Example 2: herbicidal activity, application during weed generation under submerged conditions (Table 17, symbol A); type: in vivo, late watergrass (Echinochloa oryzicola); conditions: AAH 320 g/ha; application during weed generation, submerged conditions
Outline: (§1)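 In this pot test, flooded alluvial soil (water depth 4 cm) holds all three species sown as a mixture. Once seedlings have one to two leaves, the compound's emulsion, thinned with water to the intended dose, is poured on the water; grading follows after three weeks on the earlier criteria.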

oval-leafed pondweed [1] = test: Test Example 1: herbicidal activity, application before weed generation under submerged conditions (Table 16, symbol C); type: in vivo, oval-leafed pondweed (Monochoria vaginalis); conditions: amount of applied herbicide 320 g/ha
Outline: (§2)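 Submerged Wagner pots (alluvial soil, 4 cm water) sown with weed seeds and planted with 2.5-leaf rice seedlings; emulsifiable concentrate diluted in water applied to water surface on sowing day. Held in greenhouse at 25-30 °C; injury scored 0-5 by herbicidal rate after three weeks.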

oval-leafed pondweed [2] = test: Test Example 2: herbicidal activity, application during weed generation under submerged conditions (Table 17, symbol C); type: in vivo, oval-leafed pondweed (Monochoria vaginalis); conditions: AAH 320 g/ha; application during weed generation, submerged conditions
Outline: as §1

redroot pigweed = test: Test Example 4: herbicidal effect by soil treatment (Table 19, symbol N); type: in vivo, redroot pigweed (Amaranthus retroflexus); conditions: amount of applied herbicide 320 g/ha
Outline: (§3)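 Emulsion of test compound, water-diluted to predetermined amount, sprayed on soil after sowing (seed depth ~1.5 cm, sterilized diluvial soil). Greenhouse, 25–30° C. Effect graded at three weeks post-spray.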

velvetleaf = test: Test Example 4: herbicidal effect by soil treatment (Table 19, symbol M); type: in vivo, velvetleaf (Abutilon theophrasti); conditions: amount of applied herbicide 320 g/ha
Outline: as §3

southern crabgrass [3] = test: Test Example 4: herbicidal effect by soil treatment (Table 19, symbol F); type: in vivo, southern crabgrass (Digitaria ciliaris); conditions: amount of applied herbicide 320 g/ha
Outline: as §3

barnyard grass [4] = test: Test Example 3: herbicidal effect by foliage application, Wagner pot (Table 18, symbol H); type: in vivo, barnyard grass (Echinochloa crus-galli); conditions: for herbicidal effect on H: barnyard grass: amount of applied herbicide 320 g/ha
Outline: (§4)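 Plants were sown in alluvial soil held under 0.1–0.5 cm standing water and grown 14 days in a greenhouse at 25–30 °C. An emulsifiable formulation, water-diluted to the set dose, was then sprayed onto the foliage, and effects were scored three weeks later using previously defined criteria.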

blackgrass [5] = test: Test Example 5: herbicidal effect by foliage application, plastic box (Table 20, symbol J); type: in vivo, blackgrass (Alopecurus myosuroides); conditions: foliage application, 320 g/ha, three weeks after application
Outline: (§5)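 Post-emergence foliar test in sterilized diluvial soil. Compound applied as water-diluted emulsion at a predetermined rate to 14-day-old plants; evaluation at three weeks.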

southern crabgrass [6] = test: Test Example 5: herbicidal effect by foliage application, plastic box (Table 20, symbol F); type: in vivo, southern crabgrass (Digitaria ciliaris); conditions: foliage application, 320 g/ha, three weeks after application
Outline: as §5

rice flat sedge = test: Test Example 3: herbicidal effect by foliage application, Wagner pot (Table 18, symbol E); type: in vivo, rice flat sedge (Cyperus iria); conditions: for herbicidal effect on E: rice flat sedge: amount of applied herbicide 320 g/ha
Outline: as §4

Japanese bulrush = test: Test Example 1: herbicidal activity, application before weed generation under submerged conditions (Table 16, symbol B); type: in vivo, Japanese bulrush (Schoenoplectus juncoides); conditions: amount of applied herbicide 320 g/ha
Outline: as §2

chickweed = test: Test Example 5: herbicidal effect by foliage application, plastic box (Table 20, symbol P); type: in vivo, common chickweed (Stellaria media); conditions: foliage application, 320 g/ha, three weeks after application
Outline: as §5

barnyard grass [7] = test: Test Example 5: herbicidal effect by foliage application, plastic box (Table 20, symbol H); type: in vivo, barnyard grass (Echinochloa crus-galli); conditions: foliage application, 320 g/ha, three weeks after application
Outline: as §5

blackgrass [8] = test: Test Example 4: herbicidal effect by soil treatment (Table 19, symbol J); type: in vivo, blackgrass (Alopecurus myosuroides); conditions: amount of applied herbicide 320 g/ha
Outline: as §3

false cleavers = test: Test Example 4: herbicidal effect by soil treatment (Table 19, symbol Q); type: in vivo, false cleavers (Galium spurium); conditions: amount of applied herbicide 320 g/ha
Outline: as §3

Italian ryegrass = test: Test Example 5: herbicidal effect by foliage application, plastic box (Table 20, symbol K); type: in vivo, Italian ryegrass (Lolium multiflorum); conditions: foliage application, 320 g/ha, three weeks after application
Outline: as §5

persian speedwell = test: Test Example 4: herbicidal effect by soil treatment (Table 19, symbol R); type: in vivo, Persian speedwell (Veronica persica); conditions: amount of applied herbicide 320 g/ha
Outline: as §3

Row | SMILES | herbicidal effect rating, A: late watergrass (late watergrass) | Herbicidal effect, C: oval-leafed pondweed (oval-leafed pondweed [1]) | herbicidal effect rating, C: oval-leafed pondweed (oval-leafed pondweed [2]) | herbicidal effect, N: redroot pigweed (redroot pigweed) | herbicidal effect, M: velvetleaf (velvetleaf) | herbicidal effect, F: southern crabgrass (southern crabgrass [3]) | herbicidal effect on H: barnyard grass (barnyard grass [4]) | J: blackgrass, herbicidal effect grade (blackgrass [5]) | F: southern crabgrass, herbicidal effect grade (southern crabgrass [6]) | herbicidal effect on E: rice flat sedge (rice flat sedge) | Herbicidal effect, B: Japanese bulrush (Japanese bulrush) | P: chickweed, herbicidal effect grade (chickweed) | H: barnyard grass, herbicidal effect grade (barnyard grass [7]) | herbicidal effect, J: blackgrass (blackgrass [8]) | herbicidal effect, Q: false cleavers (false cleavers) | K: Italian ryegrass, herbicidal effect grade (Italian ryegrass) | herbicidal effect, R: persian speedwell (persian speedwell) | further results
1 | CCOc1cc(F)ccc1-c1sc2cc(F)ccc2c1-c1c(O)c(C)nn(C)c1=O [3-011] | 3 (Herbicidal rate of 40% or more and less than 70%) | 3 (Herbicidal rate of 40% or more and less than 70%) | 4 (Herbicidal rate of 70% or more and less than 90%) | 5 (Herbicidal rate of 90% or more (almost completely withered)) | 4 (Herbicidal rate of 70% or more and less than 90%) | 5 (Herbicidal rate of 90% or more (almost completely withered)) | 5 (Herbicidal rate of 90% or more (almost completely withered)) | 5 (Herbicidal rate of 90% or more (almost completely withered)) | 5 (Herbicidal rate of 90% or more (almost completely withered)) | 5 (Herbicidal rate of 90% or more (almost completely withered)) | 4 (Herbicidal rate of 70% or more and less than 90%) | 5 (Herbicidal rate of 90% or more (almost completely withered)) | 5 (Herbicidal rate of 90% or more (almost completely withered)) | 5 (Herbicidal rate of 90% or more (almost completely withered)) | 5 (Herbicidal rate of 90% or more (almost completely withered)) | 5 (Herbicidal rate of 90% or more (almost completely withered)) | 4 (Herbicidal rate of 70% or more and less than 90%) | –
2 | CCCC(=O)Oc1c(C)nn(C)c(=O)c1-c1c(-c2ccc(F)cc2OCC)sc2cc(F)ccc12 [3-012] | 4 (Herbicidal rate of 70% or more and less than 90%) | 4 (Herbicidal rate of 70% or more and less than 90%) | 4 (Herbicidal rate of 70% or more and less than 90%) | 4 (Herbicidal rate of 70% or more and less than 90%) | 0 (Herbicidal rate of 5% or less (almost no effect)) | 3 (Herbicidal rate of 40% or more and less than 70%) | 5 (Herbicidal rate of 90% or more (almost completely withered)) | 5 (Herbicidal rate of 90% or more (almost completely withered)) | 5 (Herbicidal rate of 90% or more (almost completely withered)) | 5 (Herbicidal rate of 90% or more (almost completely withered)) | 5 (Herbicidal rate of 90% or more (almost completely withered)) | 5 (Herbicidal rate of 90% or more (almost completely withered)) | 5 (Herbicidal rate of 90% or more (almost completely withered)) | 4 (Herbicidal rate of 70% or more and less than 90%) | 5 (Herbicidal rate of 90% or more (almost completely withered)) | 4 (Herbicidal rate of 70% or more and less than 90%) | 5 (Herbicidal rate of 90% or more (almost completely withered)) | –
3 | Cc1nn(C)c(=O)c(-c2c(-c3ccc4c(c3)OCCO4)sc3cc(F)ccc23)c1O [3-013] | 0 (Herbicidal rate of 5% or less (almost no effect)) | 2 (Herbicidal rate of 20% or more and less than 40%) | 3 (Herbicidal rate of 40% or more and less than 70%) | 4 (Herbicidal rate of 70% or more and less than 90%) | 3 (Herbicidal rate of 40% or more and less than 70%) | 4 (Herbicidal rate of 70% or more and less than 90%) | 4 (Herbicidal rate of 70% or more and less than 90%) | 0 (Herbicidal rate of 5% or less (almost no effect)) | 4 (Herbicidal rate of 70% or more and less than 90%) | 5 (Herbicidal rate of 90% or more (almost completely withered)) | 3 (Herbicidal rate of 40% or more and less than 70%) | 5 (Herbicidal rate of 90% or more (almost completely withered)) | 3 (Herbicidal rate of 40% or more and less than 70%) | 0 (Herbicidal rate of 5% or less (almost no effect)) | 4 (Herbicidal rate of 70% or more and less than 90%) | 1 (Herbicidal rate of 5% or more and less than 20%) | 5 (Herbicidal rate of 90% or more (almost completely withered)) | –
4 | CCCC(=O)Oc1c(C)nn(C)c(=O)c1-c1c(-c2ccc3c(c2)OCCO3)sc2cc(F)ccc12 [3-014] | 3 (Herbicidal rate of 40% or more and less than 70%) | 5 (Herbicidal rate of 90% or more (almost completely withered)) | 5 (Herbicidal rate of 90% or more (almost completely withered)) | 3 (Herbicidal rate of 40% or more and less than 70%) | 0 (Herbicidal rate of 5% or less (almost no effect)) | 0 (Herbicidal rate of 5% or less (almost no effect)) | 5 (Herbicidal rate of 90% or more (almost completely withered)) | 1 (Herbicidal rate of 5% or more and less than 20%) | 3 (Herbicidal rate of 40% or more and less than 70%) | 4 (Herbicidal rate of 70% or more and less than 90%) | 3 (Herbicidal rate of 40% or more and less than 70%) | 5 (Herbicidal rate of 90% or more (almost completely withered)) | 3 (Herbicidal rate of 40% or more and less than 70%) | 0 (Herbicidal rate of 5% or less (almost no effect)) | 2 (Herbicidal rate of 20% or more and less than 40%) | 1 (Herbicidal rate of 5% or more and less than 20%) | 5 (Herbicidal rate of 90% or more (almost completely withered)) | –
5 | CCOc1ccccc1-c1sc2cc(C)ccc2c1-c1c(O)c(C)nn(C)c1=O [3-053] | 3 (Herbicidal rate of 40% or more and less than 70%) | 4 (Herbicidal rate of 70% or more and less than 90%) | 3 (Herbicidal rate of 40% or more and less than 70%) | – | – | – | – | 5 (Herbicidal rate of 90% or more (almost completely withered)) | 5 (Herbicidal rate of 90% or more (almost completely withered)) | – | 5 (Herbicidal rate of 90% or more (almost completely withered)) | 5 (Herbicidal rate of 90% or more (almost completely withered)) | 5 (Herbicidal rate of 90% or more (almost completely withered)) | – | – | 5 (Herbicidal rate of 90% or more (almost completely withered)) | – | N: redroot pigweed, herbicidal effect grade (redroot pigweed): 3 (Herbicidal rate of 40% or more and less than 70%); M: velvetleaf, herbicidal effect grade (velvetleaf): 0 (Herbicidal rate of 5% or less (almost no effect)); F: southern crabgrass, herbicidal effect grade (southern crabgrass [3]): 5 (Herbicidal rate of 90% or more (almost completely withered)); herbicidal effect on barnyard grass (H) (barnyard grass [4]; 320 g/ha): 5 (Herbicidal rate of 90% or more (almost completely withered)); herbicidal effect on rice flat sedge (E) (rice flat sedge; 320 g/ha): 5 (Herbicidal rate of 90% or more (almost completely withered)); J: blackgrass, herbicidal effect grade (blackgrass [8]): 3 (Herbicidal rate of 40% or more and less than 70%); Q: false cleavers, herbicidal effect grade (false cleavers): 5 (Herbicidal rate of 90% or more (almost completely withered)); R: persian speedwell, herbicidal effect grade (persian speedwell): 5 (Herbicidal rate of 90% or more (almost completely withered))
